Measurements as given in ChEMBL document CHEMBL4371054, “Dual inhibition of Kif15 by oxindole and quinazolinedione chemical probes” (Bioorg Med Chem Lett, 2019).
Calls of active or inactive are those of the source. The rule behind the calls is not given here.

Legend:
[1] = target: T1, Kinesin-like protein KIF18A (Homo sapiens) (UniProt Q8NI77); assay: Inhibition of Kif18A (unknown origin) assessed as reduction in Alexa-594 labelled microtubule gliding at 30 uM measured every 2 secs for 20 secs by epifluorescence microscopic analysis relative to control
T1 sequence (whole entry): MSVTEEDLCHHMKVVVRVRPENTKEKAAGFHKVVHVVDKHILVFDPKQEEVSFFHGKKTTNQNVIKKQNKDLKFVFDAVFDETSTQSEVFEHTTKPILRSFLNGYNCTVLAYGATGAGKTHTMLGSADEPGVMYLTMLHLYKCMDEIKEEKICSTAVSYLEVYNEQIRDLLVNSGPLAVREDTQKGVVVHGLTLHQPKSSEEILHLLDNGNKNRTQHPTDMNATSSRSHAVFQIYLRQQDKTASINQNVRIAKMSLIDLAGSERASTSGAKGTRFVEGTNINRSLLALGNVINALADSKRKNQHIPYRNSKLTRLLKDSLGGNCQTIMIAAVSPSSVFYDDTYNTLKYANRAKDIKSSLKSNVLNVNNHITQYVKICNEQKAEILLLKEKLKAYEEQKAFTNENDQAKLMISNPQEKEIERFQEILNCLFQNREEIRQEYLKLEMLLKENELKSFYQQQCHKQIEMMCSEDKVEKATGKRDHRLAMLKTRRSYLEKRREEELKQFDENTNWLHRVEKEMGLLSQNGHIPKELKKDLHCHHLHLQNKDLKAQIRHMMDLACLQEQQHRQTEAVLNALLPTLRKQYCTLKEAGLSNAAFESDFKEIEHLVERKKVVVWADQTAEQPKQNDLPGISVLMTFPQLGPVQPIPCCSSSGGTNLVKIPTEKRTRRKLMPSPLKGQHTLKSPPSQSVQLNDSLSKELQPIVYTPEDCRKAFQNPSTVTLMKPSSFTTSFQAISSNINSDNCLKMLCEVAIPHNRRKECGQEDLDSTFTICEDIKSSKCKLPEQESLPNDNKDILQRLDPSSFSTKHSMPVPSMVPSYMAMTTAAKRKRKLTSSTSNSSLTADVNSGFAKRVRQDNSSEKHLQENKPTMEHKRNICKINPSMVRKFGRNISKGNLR

[2] = target: T2, Kinesin-like protein KIF15 (Homo sapiens) (UniProt Q9NS87); assay: Inhibition of Kif15 in TP53-deficient human RPE1 cells assessed as effect on spindle length at 25 uM after 24 hrs by Hoechst 33342 staining based immunofluorescence microscopic analysis (reference value: 11.4 +/- 0.2 um)
T2 sequence (whole entry): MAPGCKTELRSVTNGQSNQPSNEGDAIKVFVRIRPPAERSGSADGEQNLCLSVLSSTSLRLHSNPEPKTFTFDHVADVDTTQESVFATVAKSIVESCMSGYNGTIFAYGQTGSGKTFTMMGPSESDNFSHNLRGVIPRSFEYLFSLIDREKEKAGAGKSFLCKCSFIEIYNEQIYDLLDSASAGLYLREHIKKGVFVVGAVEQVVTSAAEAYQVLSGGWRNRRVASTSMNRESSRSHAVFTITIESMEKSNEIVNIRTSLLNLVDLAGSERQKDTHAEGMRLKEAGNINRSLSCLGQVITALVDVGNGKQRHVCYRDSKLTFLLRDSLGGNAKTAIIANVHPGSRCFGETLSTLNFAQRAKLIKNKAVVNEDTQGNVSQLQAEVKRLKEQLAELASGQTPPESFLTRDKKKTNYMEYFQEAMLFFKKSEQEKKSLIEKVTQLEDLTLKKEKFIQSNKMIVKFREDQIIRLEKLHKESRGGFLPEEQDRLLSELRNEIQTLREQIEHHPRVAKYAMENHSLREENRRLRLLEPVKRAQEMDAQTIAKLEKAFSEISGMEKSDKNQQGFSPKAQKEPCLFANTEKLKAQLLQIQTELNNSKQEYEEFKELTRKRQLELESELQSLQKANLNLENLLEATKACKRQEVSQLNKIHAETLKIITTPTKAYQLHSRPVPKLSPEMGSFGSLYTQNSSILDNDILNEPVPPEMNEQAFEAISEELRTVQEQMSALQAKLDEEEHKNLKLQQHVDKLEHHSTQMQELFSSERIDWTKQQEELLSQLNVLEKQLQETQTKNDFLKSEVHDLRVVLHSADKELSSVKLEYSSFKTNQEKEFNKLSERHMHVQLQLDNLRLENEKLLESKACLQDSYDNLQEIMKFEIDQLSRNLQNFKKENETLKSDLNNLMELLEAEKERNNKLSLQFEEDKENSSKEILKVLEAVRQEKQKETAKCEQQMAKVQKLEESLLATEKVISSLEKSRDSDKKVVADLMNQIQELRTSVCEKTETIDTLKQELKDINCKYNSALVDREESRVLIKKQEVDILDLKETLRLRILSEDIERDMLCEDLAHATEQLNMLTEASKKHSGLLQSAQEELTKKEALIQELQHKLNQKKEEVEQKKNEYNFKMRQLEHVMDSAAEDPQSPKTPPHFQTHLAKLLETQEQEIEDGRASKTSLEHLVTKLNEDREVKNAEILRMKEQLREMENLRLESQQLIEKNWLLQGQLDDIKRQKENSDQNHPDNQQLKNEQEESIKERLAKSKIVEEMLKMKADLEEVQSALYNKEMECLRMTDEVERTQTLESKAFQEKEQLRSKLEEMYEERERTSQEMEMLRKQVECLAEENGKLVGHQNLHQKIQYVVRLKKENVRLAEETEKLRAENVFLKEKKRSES

[3] = target: T2, Kinesin-like protein KIF15 (Homo sapiens); assay: Inhibition of recombinant His6-tagged Kif15 (N700 residues) (unknown origin) expressed in HeLa cells assessed as reduction in Alexa-594 labelled microtubule gliding at 750 nM measured every 2 secs for 20 secs by epifluorescence microscopic analysis (reference value: 1%); type: cell-based
[4] = target: T3, Aurora kinase A (Homo sapiens) (UniProt O14965); assay: Inhibition of AURKA (unknown origin) at 1 uM relative to control
T3 sequence (whole entry): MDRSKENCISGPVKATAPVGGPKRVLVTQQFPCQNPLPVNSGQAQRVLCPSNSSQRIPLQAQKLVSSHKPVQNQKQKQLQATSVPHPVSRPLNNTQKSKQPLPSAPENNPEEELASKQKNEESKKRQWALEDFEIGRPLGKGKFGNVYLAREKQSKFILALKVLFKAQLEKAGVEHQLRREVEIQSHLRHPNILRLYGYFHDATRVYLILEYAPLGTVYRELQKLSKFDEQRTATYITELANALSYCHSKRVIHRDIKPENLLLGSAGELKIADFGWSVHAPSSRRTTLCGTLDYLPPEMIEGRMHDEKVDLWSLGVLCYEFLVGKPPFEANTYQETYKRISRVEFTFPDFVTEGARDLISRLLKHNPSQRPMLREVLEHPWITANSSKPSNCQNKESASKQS

O=C1Nc2ccc(C(=O)c3ccco3)cc2/C1=C/c1cc(Cl)c(O)c(Cl)c1
inhibition [1]: 4.9% | inhibition [2]: inactive | inhibition [3]: 49% | inhibition [4]: 67%
